Data taken from article PMC11350846, “Synthesis of Second-Generation Analogs of Temporin-SHa Peptide Having Broad-Spectrum Antibacterial and Anticancer Effects” (Antibiotics, 2024).
Where a SMILES comes first, the peptide text is derived from it. [ ]: non-standard residue; d: D form. d2Nal = N[C@H](Cc1ccc2ccccc2c1)C(=O)O

Key:
[1] = tested on: A. baumannii (DSM 30007); details: A. baumannii, from MIC
Description: (§1) The peptides were assessed for their antibacterial activity by determining the minimum inhibitory concentration (MIC) using the two-fold serial dilution method following the National Committee of Clinical Laboratory Standards, as previously described. Gram-negative (Acinetobacter baumannii (DSM 30007), Escherichia coli (ATCC 8739), Enterobacter cloacae (DSM 30054), Helicobacter pylori (ATCC 43504), Klebsiella pneumoniae (DSM 26371), Pseudomonas aeruginosa (ATCC 9027)) and Gram-positive bacteria (Bacillus subtilis (ATCC 6633), Enterococcus faecalis (DSM 2570), Enterococcus faecium (DSM 20477), Staphylococcus aureus (ATCC 6538)) were used for the antibacterial activity assays. In brief, 3 mL of Mueller–Hinton (MH) broth was inoculated with single clusters of the various bacterial strains and incubated overnight at 37 °C with agitation at 200 rpm. The next day, the bacterial solution was diluted with sterile MH by 1/100 and further incubated at 37 °C and 200 rpm until the bacteria reached the log phase growth (OD600nm around 0.6). The bacterial suspension was then adjusted to a density of approximately 10^5 bacteria/mL, and 100 μL was added per well of 96-well microplates (Greiner BioOne, Les Ulis, France), followed by exposure to increasing concentrations of peptides (from 0 to 100 µM, 1:2 dilution). Plates were then incubated at 37 °C for 18-24 h under either aerobic (for A. baumannii, E. cloacae, E. coli, P. aeruginosa, B. subtilis, and S. aureus) or micro-aerobic conditions generated using GasPak units (for E. faecalis, E. faecium and, H. pylori). […] The optical density (OD) at 600nm was measured using a microplate reader (Biotek, Synergy Mx, Les Ulis, France) after the final incubation. All experiments were performed in triplicate (n = 3).

[2] = tested on: E. cloacae (DSM 30054)
Description: as §1

[3] = tested on: E. coli (ATCC 8739); details: E. coli, from MIC
Description: as §1

[4] = tested on: E. faecalis (DSM 2570)
Description: as §1

[5] = tested on: E. faecium (DSM 20477); details: E. faecium, from MIC
Description: as §1

[6] = tested on: K. pneumonia (DSM 26371); details: K. pneumonia, from MIC
Description: as §1

[7] = tested on: P. aeruginosa (ATCC 9027); details: P. aeruginosa, from MIC
Description: as §1

[8] = tested on: Breast Cancer (MCF-7); format: cell-based, human; details: 48 h
Description: (§2) The antiproliferative activity of the peptides was evaluated, as previously described using human cancer cell lines (A549 (lung), A2780 (ovary), HepG-2 (liver), MCF-7 (breast), MiaPaCa-2 (pancreas), MNT-1 (skin), and PC-3 (prostate)) and normal human lung fibroblasts (IMR-90) or epithelial cells (BEAS-2B). The cells were cultured in DMEM supplemented with 10% FBS, 1% L-glutamine, and 1% antibiotics at 37 °C in a 5% CO2 incubator. For the antiproliferative assay, cells were seeded in 96-well plates at approximately 3000 cells/well. Twenty-four hours later, cells were treated with increasing concentrations of peptides (1:2 serial dilution from 100 µM to 0 µM) for 48 h. After treatment, the number of viable cells was determined using a resazurin-based assay, and the fluorescence intensity was measured with a microplate reader (Ex 530 nm/Em 590 nm). The IC50 values of the peptides (i.e., the concentrations causing 50% inhibition of cell proliferation) were determined using GraphPad® Prism 7 software. The experiments were performed in triplicate (n = 3). The cytotoxicity of the peptides was also evaluated using confluent/no-dividing cells, as previously described. Briefly, human cells were seeded onto 96-well plates at 20,000 cells/well. When they reached 80–90% confluence (after 24–48 h), cells were treated with escalating concentrations of peptides. After 48h incubation, cell viability was measured using a resazurin assay and CC50 (i.e., the concentrations causing 50% inhibition of cell viability) and determined using GraphPad® Prism 7 software. The experiments were performed in triplicate (n = 3).

[9] = tested on: Liver Cancer (HepG-2); format: cell-based, human; details: 48 h
Description: as §2

[10] = tested on: Lung Cancer (A549); format: cell-based, human; details: 48 h
Description: as §2

[11] = tested on: Normal Lung Fibroblast (IMR-90); format: cell-based, human; details: 48 h
Description: as §2

[12] = tested on: Ovarian Cancer (A2780); format: cell-based, human; details: 48 h
Description: as §2

[13] = tested on: Pancreatic Cancer (MiaPaCa-2); format: cell-based, human; details: 48 h
Description: as §2

[14] = tested on: Prostate Cancer (PC-3); format: cell-based, human; details: 48 h
Description: as §2

[15] = tested on: Skin Cancer (MNT-1); format: cell-based, human; details: 48 h
Description: as §2

[16] = Circular dichroism, secondary structure (Bestsel); format: physicochemical; details: CD in 20 mM SDS
Description: Circular dichroism of temporin SHa, [G10a]-SHa and newly synthesised second-generation analogs of [G10a]-SHa in 20 mM SDS are shown in Figure 2. In lipidic environments mimicked by SDS, peptides adopt an alpha helical structure due to their amphipathic nature. This structural feature is important for their antimicrobial activity, allowing for their insertion into bacterial membranes. The hydrophobic region of the peptide interacts with the hydrophobic portion of the lipid while the hydrophilic region remains exposed to the aqueous environment. The percentage of alpha helix, as well as the percentage of other secondary structures, was determined from CD data using Bestsel software (https://bestsel.elte.hu/index.php, (accessed on 22 June 2024)) (Table 3). Temporin-SHa (1) adopted a 49.5% α-helical structure, while its first-generation analog [G10a]-SHa (2) acquired a 82.4% alpha helical structure. The 84.6%, 88.7%, 4.7%, and 53.8% alpha helical structures were acquired for second-generation analogs 3, 4, 5, and 6, respectively.
The far-ultraviolet CD spectra were obtained using a JASCO J-810 spectropolarimeter (Jasco, Tokyo, Japan). In addition to this, the quartz cuvette of 10 mm path length was used. The temperature was maintained at 22 °C, and the output of the instrument was calibrated using D-(+)-10-camphorsulfonic acid. The peptides, which were present at a concentration of 1.0 mg/mL, were dissolved completely in 20 mM SDS at a concentration of 15 µM [21]. The instrument was set to record wavelengths ranging from 190 to 260 nm with a bandwidth of 2 nm. Ten consecutive scans (accumulations) were recorded for each spectrum at a rate of 50 nm/min, and the baseline was acquired under the same conditions.

[17] = tested on: Gram-negative and Gram-positive bacterial strains
Description: as §1

[18] = tested on: Normal Lung Epithelium (BEAS-2B); format: cell-based, human; details: 48 h
Description: as §2

[19] = tested on: human cancer and normal/non-cancerous cells; format: cell-based; details: tested human cells, up to 100 µM
Description: as §2

| IC50 [8] [µM] | IC50 [9] [µM] | IC50 [10] [µM] | IC50 [12] [µM] | IC50 [13] [µM] | IC50 [14] [µM] | IC50 [15] [µM] | Antiparallel [16] [%] | Helix (alpha helical structure) [16] [%] | Others [16] [%] | Parallel [16] [%] | Turn [16] [%] | Structure (SMILES) | fold activity compared to [G10a]-SHa (2) [5] | IC50 [11] [µM] | IC50 [18] [µM] | also measured |
| --- | --- | --- | --- | --- | --- | --- | --- | --- | --- | --- | --- | --- | --- | --- | --- | --- |
| 37.4 ± 11.8 | 64.3 ± 3.5 | 32.6 ± 2.4 | 21.8 ± 3.2 | 61.4 ± 4.1 | 11.7 ± 1.2 | 21.7 ± 6.9 | 11.30 | 88.70 | 0.00 | 0.00 | 0.00 | CC[C@H](C)[C@H](NC(=O)CNC(=O)[C@H](CO)NC(=O)[C@H](CC(C)C)NC(=O)[C@@H](N)Cc1ccccc1)C(=O)N[C@H](C(=O)NCC(=O)N[C@@H](CCSC)C(=O)N[C@@H](CC(C)C)C(=O)N[C@@H](CCCCN)C(=O)N[C@@H](CCCCN)C(=O)N[C@@H](CC(C)C)C(=O)N[C@@H](Cc1ccccc1)C(N)=O)C(C)C [[G10K]-SHa (4), H-Phe^1-Leu^2-Ser^3-Gly^4-IIe^5-Val^6-Gly^7-Met^8-Leu^9-L-Lys^10-Lys^11-Leu^12-Phe^13-NH2] (H-FLSGIVGMLKKLF-NH2) | at least 16 | > 100 |  | fold activity compared to [G10a]-SHa (2) [1]: at least four times more active; fold activity compared to [G10a]-SHa (2) ([2]; E. cloacae, from MIC): about eight times more active; fold increase in activity relative to the parent peptide (1) ([2]; Enterobacter cloacae DSM 30054, from MIC): 4; fold activity compared to [G10a]-SHa (2) [3]: at least four times more active; fold increase in activity relative to the parent peptide (1) ([4]; Enterococcus faecalis DSM 2570, from MIC): 4; fold activity compared to [G10a]-SHa (2) [6]: at least four times more active; fold activity compared to [G10a]-SHa (2) [7]: at least four times more active; Helix (alpha helical structure) ([16]; listed as 4): 88.7% |
| > 100 | > 100 | > 100 | > 100 | > 100 | > 100 | > 100 | 34.10 | 4.70 | 47.20 | 1.10 | 12.90 | CC[C@H](C)[C@H](NC(=O)CNC(=O)[C@H](CO)NC(=O)[C@H](CC(C)C)NC(=O)[C@@H](N)Cc1ccccc1)C(=O)N[C@H](C(=O)NCC(=O)N[C@@H](CCSC)C(=O)N[C@@H](CC(C)C)C(=O)N[C@H](Cc1ccc2ccccc2c1)C(=O)N[C@@H](CCCCN)C(=O)N[C@@H](CC(C)C)C(=O)N[C@@H](Cc1ccccc1)C(N)=O)C(C)C [[G10n]-SHa (5), H-Phe^1-Leu^2-Ser^3-Gly^4-IIe^5-Val^6-Gly^7-Met^8-Leu^9-D-NAL^10-Lys^11-Leu^12-Phe^13-NH2] (H-FLSGIVGML[d2Nal]KLF-NH2) |  | > 100 | > 100 | MIC values, range over strains [17]: 50 to 100 µM; activity against the tested human cells [19]: inactive; Helix (alpha helical structure) ([16]; listed as 5): 4.7% |
| 4.4 ± 1.3 | 19.8 ± 1.7 | 3.6 ± 0.7 | 6.6 ± 0.5 | 6.8 ± 0.4 | 4.9 ± 0.3 | 5.5 ± 0.4 | 15.40 | 84.60 | 0.00 | 0.00 | 0.00 | CC[C@H](C)[C@H](NC(=O)CNC(=O)[C@H](CO)NC(=O)[C@H](CC(C)C)NC(=O)[C@@H](N)Cc1ccccc1)C(=O)N[C@H](C(=O)NCC(=O)N[C@@H](CCSC)C(=O)N[C@@H](CC(C)C)C(=O)N[C@H](Cc1ccccc1)C(=O)N[C@@H](CCCCN)C(=O)N[C@@H](CC(C)C)C(=O)N[C@@H](Cc1ccccc1)C(N)=O)C(C)C [[G10f]-SHa (3), H-Phe^1-Leu^2-Ser^3-Gly^4-IIe^5-Val^6-Gly^7-Met^8-Leu^9-D-Phe^10-Lys^11-Leu^12-Phe^13-NH2] (H-FLSGIVGML[dF]KLF-NH2) | 32 | 14.2 ± 0.6 | 7.8 ± 0.3 | Helix (alpha helical structure) ([16]; listed as 3): 84.6% |
| 13.1 ± 3.6 | 40.3 ± 7.2 |  | 23.2 ± 3.1 | 23.9 ± 3.9 | 19.3 ± 1.2 | 44.1 ± 8.1 | 15.10 | 53.80 | 0.00 | 31.10 | 0.00 | CC[C@H](C)[C@H](NC(=O)CNC(=O)[C@H](CO)NC(=O)[C@H](CC(C)C)NC(=O)[C@@H](N)Cc1ccccc1)C(=O)N[C@H](C(=O)NCC(=O)N[C@@H](CCSC)C(=O)N[C@@H](CC(C)C)C(=O)N[C@H](Cc1ccc(O)cc1)C(=O)N[C@@H](CCCCN)C(=O)N[C@@H](CC(C)C)C(=O)N[C@@H](Cc1ccccc1)C(N)=O)C(C)C [[G10y]-SHa (6), H-Phe^1-Leu^2-Ser^3-Gly^4-IIe^5-Val^6-Gly^7-Met^8-Leu^9-D-Tyr^10-Lys^11-Leu^12-Phe^13-NH2] (H-FLSGIVGML[dY]KLF-NH2) | at least eight times more activity |  |  | fold activity compared to [G10a]-SHa (2) ([4]; E. faecalis, from MIC): twice the activity; Helix (alpha helical structure) ([16]; listed as 6): 53.8% |
